The NIST ThermoML archive (doi:10.1021/je200609g)
Numbers after ± are expanded uncertainties.

Test: xn = mol fraction of the nth substance listed
Details: 101 kPa, Liquid; for mass density: Vibrating tube method

CCn1cc[n+](C)c1.O=S(=O)([O-])C(F)(F)F [1-ethyl-3-methylimidazolium trifluoromethanesulfonate] + C1CCOC1
Details	mass density, 278.15 K [kg/m3]	mass density, 288.15 K [kg/m3]	mass density, 298.15 K [kg/m3]	mass density, 308.15 K [kg/m3]	mass density, 318.15 K [kg/m3]	speed of sound, 278.15 K [m/s]	speed of sound, 288.15 K [m/s]	speed of sound, 298.15 K [m/s]	speed of sound, 308.15 K [m/s]	speed of sound, 318.15 K [m/s]
x1 = 0.051	964.39 ± 0.22	953.89 ± 0.22	943.29 ± 0.22	932.59 ± 0.22	921.76 ± 0.23	1362.7 ± 1.5	1316.9 ± 1.4	1271.7 ± 1.4	1227 ± 1.4	1182.8 ± 1.3
x1 = 0.1	1013.94 ± 0.21	1003.61 ± 0.21	993.23 ± 0.21	982.77 ± 0.21	972.18 ± 0.22	–	1318.7 ± 1.5	1275.5 ± 1.4	1233.3 ± 1.4	1191.4 ± 1.4
x1 = 0.1503	1059.68 ± 0.2	1049.68 ± 0.2	1039.61 ± 0.2	1029.5 ± 0.2	1019.22 ± 0.2	–	1325.4 ± 1.5	1285.5 ± 1.4	1246.5 ± 1.4	1207.2 ± 1.4
x1 = 0.2001	1098.67 ± 0.2	1088.88 ± 0.2	1079.04 ± 0.2	1069.18 ± 0.2	1059.3 ± 0.2	1373.3 ± 1.5	1334.8 ± 1.5	1297.4 ± 1.5	1260.7 ± 1.4	1224.5 ± 1.4
x1 = 0.3001	1166.19 ± 0.27	1155.19 ± 0.27	1145.24 ± 0.26	1135.87 ± 0.26	1126.45 ± 0.26	1387.7 ± 1.6	1353.8 ± 1.6	1320.8 ± 1.6	1288.7 ± 1.5	1257.1 ± 1.5
x1 = 0.3992	1217.18 ± 0.38	1207.94 ± 0.37	1198.76 ± 0.36	1189.62 ± 0.36	1180.52 ± 0.35	1403.5 ± 1.7	1372.7 ± 1.7	1342.8 ± 1.7	1313.3 ± 1.6	1284.5 ± 1.6
x1 = 0.4995	1261.1 ± 0.52	1252.06 ± 0.51	1243.08 ± 0.5	1234.16 ± 0.5	1225.28 ± 0.49	1414.7 ± 1.8	1388 ± 1.8	1361.4 ± 1.8	1335.5 ± 1.8	1309.7 ± 1.7
x1 = 0.599	1297.75 ± 0.7	1288.87 ± 0.69	1280.05 ± 0.68	1271.3 ± 0.67	1262.63 ± 0.66	1432.5 ± 1.9	1405.8 ± 1.9	1379.9 ± 1.9	1354.5 ± 1.9	1329.9 ± 1.9
x1 = 0.7014	1330 ± 0.92	1321.24 ± 0.9	1312.54 ± 0.89	1303.92 ± 0.88	1295.36 ± 0.87	1446.6 ± 2.1	1421.4 ± 2	1396.8 ± 2	1372.6 ± 2	1349 ± 2
x1 = 0.7965	1356.21 ± 1.1	1347.55 ± 1.1	1338.96 ± 1.1	1330.44 ± 1.1	1321.98 ± 1.1	1459 ± 2.2	1434.6 ± 2.2	1410.8 ± 2.2	1387.6 ± 2.1	1365.1 ± 2.1
x1 = 0.849	1369.15 ± 1.3	1360.54 ± 1.3	1352 ± 1.3	1343.53 ± 1.2	1335.11 ± 1.2	1465.4 ± 2.3	1441.4 ± 2.2	1418.1 ± 2.2	1395.2 ± 2.2	1372.9 ± 2.2
x1 = 0.899	1380.34 ± 1.4	1371.78 ± 1.4	1363.27 ± 1.4	1354.82 ± 1.4	1346.41 ± 1.4	1470.5 ± 2.3	1446.4 ± 2.3	1423.1 ± 2.3	1400.3 ± 2.3	1378.1 ± 2.3
x1 = 0.9511	1391.34 ± 1.6	1382.83 ± 1.6	1374.36 ± 1.6	1365.93 ± 1.6	1357.57 ± 1.5	1476 ± 2.4	1452.3 ± 2.4	1429.2 ± 2.4	1406.8 ± 2.4	1384.9 ± 2.4

CCn1cc[n+](C)c1.O=S(=O)([O-])C(F)(F)F [1-ethyl-3-methylimidazolium trifluoromethanesulfonate] + CC(C)O
speed of sound [m/s], Sing-around technique in a fixed-path interferometer
Details	278.15 K	288.15 K	298.15 K	308.15 K	318.15 K	328.15 K
x1 = 0.0499	1220.6 ± 0.77	1188.2 ± 0.75	1156.4 ± 0.74	1124.5 ± 0.74	1092.5 ± 0.73	1060.1 ± 0.72
x1 = 0.0996	1233.3 ± 0.8	1203.2 ± 0.79	1173.6 ± 0.78	1143.9 ± 0.77	1114.1 ± 0.76	1084.3 ± 0.76
x1 = 0.15	1249.7 ± 0.85	1221.4 ± 0.84	1193.3 ± 0.83	1165.3 ± 0.82	1137.2 ± 0.81	1109 ± 0.81
x1 = 0.2001	1267.9 ± 0.9	1240.6 ± 0.89	1213.7 ± 0.89	1186.8 ± 0.88	1159.9 ± 0.87	1133 ± 0.87
x1 = 0.2994	1305.6 ± 1	1279.7 ± 1	1254.2 ± 1	1228.8 ± 1	1203.6 ± 1	1178.5 ± 1
x1 = 0.4004	1341.7 ± 1.2	1316.5 ± 1.2	1291.8 ± 1.2	1267.5 ± 1.1	1243.3 ± 1.1	1219.5 ± 1.1
x1 = 0.4997	1373.6 ± 1.3	1348.8 ± 1.3	1324.7 ± 1.3	1301 ± 1.3	1277.6 ± 1.3	1254.6 ± 1.3
x1 = 0.5999	1401.7 ± 1.5	1377.3 ± 1.5	1353.6 ± 1.5	1330.4 ± 1.5	1307.7 ± 1.5	1285.2 ± 1.5
x1 = 0.7019	1426.3 ± 1.6	1402.6 ± 1.6	1379.4 ± 1.6	1356.7 ± 1.6	1334.4 ± 1.6	1312.6 ± 1.6
x1 = 0.7987	1447 ± 1.8	1423.4 ± 1.8	1400.5 ± 1.8	1378.1 ± 1.8	1356.2 ± 1.8	1334.8 ± 1.8
x1 = 0.8519	1458 ± 1.9	1434.1 ± 1.9	1411.2 ± 1.9	1388.7 ± 1.9	1366.7 ± 1.9	1345.2 ± 1.9
x1 = 0.8989	1465.9 ± 2	1442.5 ± 2	1419.8 ± 2	1397.5 ± 2	1375.9 ± 2	1354.6 ± 1.9
x1 = 0.9462	1474.3 ± 2	1450.8 ± 2	1428.1 ± 2	1406 ± 2	1384.3 ± 2	1363.1 ± 2

mass density [kg/m3]
Details	278.15 K	288.15 K	298.15 K	308.15 K	318.15 K	328.15 K
x1 = 0.0499	868.82 ± 0.27	860.62 ± 0.27	852.27 ± 0.27	843.73 ± 0.27	834.95 ± 0.27	825.89 ± 0.27
x1 = 0.0996	929.8 ± 0.25	921.53 ± 0.25	913.15 ± 0.25	904.62 ± 0.25	895.92 ± 0.25	887.02 ± 0.26
x1 = 0.15	984.2 ± 0.22	975.84 ± 0.22	967.41 ± 0.22	958.87 ± 0.22	950.21 ± 0.23	941.42 ± 0.23
x1 = 0.2001	1032.07 ± 0.2	1023.66 ± 0.2	1015.19 ± 0.2	1006.67 ± 0.2	998.06 ± 0.2	989.35 ± 0.2
x1 = 0.2994	1111.77 ± 0.25	1103.29 ± 0.25	1094.81 ± 0.25	1086.3 ± 0.24	1077.77 ± 0.24	1069.21 ± 0.24
x1 = 0.4004	1177.58 ± 0.35	1169.07 ± 0.35	1160.58 ± 0.34	1152.12 ± 0.34	1143.67 ± 0.33	1135.22 ± 0.33
x1 = 0.4997	1231.42 ± 0.5	1222.91 ± 0.49	1214.45 ± 0.48	1206.03 ± 0.47	1197.63 ± 0.46	1189.27 ± 0.46
x1 = 0.5999	1276.64 ± 0.68	1268.13 ± 0.67	1259.68 ± 0.66	1251.27 ± 0.65	1242.91 ± 0.64	1234.58 ± 0.63
x1 = 0.7019	1315.15 ± 0.9	1306.65 ± 0.88	1298.2 ± 0.87	1289.82 ± 0.86	1281.48 ± 0.85	1273.2 ± 0.83
x1 = 0.7987	1347.13 ± 1.1	1338.64 ± 1.1	1330.2 ± 1.1	1321.82 ± 1.1	1313.5 ± 1.1	1305.24 ± 1.1
x1 = 0.8519	1362.88 ± 1.3	1354.39 ± 1.3	1345.96 ± 1.3	1337.58 ± 1.2	1329.26 ± 1.2	1320.99 ± 1.2
x1 = 0.8989	1375.94 ± 1.4	1367.46 ± 1.4	1359.02 ± 1.4	1350.65 ± 1.4	1342.33 ± 1.4	1334.07 ± 1.4
x1 = 0.9462	1388.37 ± 1.6	1379.89 ± 1.6	1371.46 ± 1.6	1363.08 ± 1.5	1354.76 ± 1.5	1346.5 ± 1.5
